{"source": "paper PMC6095690", "about": "“Coalescing beneficial host and deleterious antiparasitic actions as an antischistosomal strategy” (eLife, 2018)", "key": {"[1]": {"test_system": "forskolin evoked cAMP production in HEK293 cells lacking Sm.5HTRL", "assay": "counter-screen of antagonist hits: forskolin evoked cAMP production in parental reporter line", "type": "cell-based"}, "[2]": {"biological_target": "T1, Sm.5HTRL (Schistosoma mansoni, UniProt A0A173FEI8)", "T1 sequence (A0A173FEI8 1-547)": "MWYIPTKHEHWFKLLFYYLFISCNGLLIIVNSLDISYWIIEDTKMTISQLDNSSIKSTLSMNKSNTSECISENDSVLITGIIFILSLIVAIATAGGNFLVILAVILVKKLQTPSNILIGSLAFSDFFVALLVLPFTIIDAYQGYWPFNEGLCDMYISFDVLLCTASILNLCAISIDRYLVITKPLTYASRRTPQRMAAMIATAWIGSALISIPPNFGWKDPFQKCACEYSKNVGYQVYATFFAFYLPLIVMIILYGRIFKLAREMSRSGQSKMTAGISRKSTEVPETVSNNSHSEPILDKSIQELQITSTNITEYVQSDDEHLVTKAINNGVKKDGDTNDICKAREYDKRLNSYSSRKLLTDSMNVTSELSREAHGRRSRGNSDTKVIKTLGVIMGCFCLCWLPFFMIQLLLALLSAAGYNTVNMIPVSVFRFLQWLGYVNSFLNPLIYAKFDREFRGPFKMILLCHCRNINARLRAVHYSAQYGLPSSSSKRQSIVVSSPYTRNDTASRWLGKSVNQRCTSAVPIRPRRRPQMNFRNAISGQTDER"}, "[3]": {"biological_target": "Sh.5HTR (Schistosoma haematobium, UniProt A0A922S615)", "type": "cell-based"}, "[4]": {"biological_target": "Sj.5HTR (Schistosoma japonicum, UniProt A0A346LTY2)", "sequence (A0A346LTY2 entry or part of it)": "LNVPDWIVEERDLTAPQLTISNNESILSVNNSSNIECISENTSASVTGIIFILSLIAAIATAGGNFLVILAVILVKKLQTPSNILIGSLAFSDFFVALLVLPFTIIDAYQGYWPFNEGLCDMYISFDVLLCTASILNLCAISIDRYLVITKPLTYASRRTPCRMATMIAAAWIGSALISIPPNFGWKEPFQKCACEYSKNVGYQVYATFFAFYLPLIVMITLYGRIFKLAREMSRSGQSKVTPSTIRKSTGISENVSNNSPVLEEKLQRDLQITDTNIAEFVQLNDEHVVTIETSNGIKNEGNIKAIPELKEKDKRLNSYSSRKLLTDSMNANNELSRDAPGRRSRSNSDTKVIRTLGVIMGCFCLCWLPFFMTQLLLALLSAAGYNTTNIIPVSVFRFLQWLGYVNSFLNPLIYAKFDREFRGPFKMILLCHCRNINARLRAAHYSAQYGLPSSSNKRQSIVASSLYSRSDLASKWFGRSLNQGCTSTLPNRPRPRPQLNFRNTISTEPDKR", "assay": "cell-based"}, "[5]": {"test_system": "adult S. mansoni parasites", "assay": "adult worm movement assay ex vivo", "design": "species or system Schistosoma mansoni", "details": "ex vivo; for EC50: Schistosoma mansoni, ± 95% confidence interval, read-out: EC50 for stimulation of adult schistosome movement"}, "[6]": {"test_system": "immature S. mansoni", "assay": "movement of immature worms harvested 4 weeks post infection, ex vivo", "design": "species or system Schistosoma mansoni", "details": "male worms 4 weeks post infection", "source_text": "Figure 6. […] Figure 6—figure supplement 1. […] Scale = 50 µm. [drawing 7]"}, "[7]": {"biological_target": "T1, Sm.5HTRL", "assay": "cell-based"}, "[8]": {"test_system": "adult S. mansoni male and female pairs", "assay": "egg laying assay of worm pairs cultured ex vivo"}, "[9]": {"test_system": "human 5-HT2B receptor", "design": "method as in Chan et al., 2017", "details": "contracts host mesenteric vessels; ref Chan et al., 2017; cited from earlier work"}, "[10]": {"test_system": "liver signaling pathways", "assay": "Ingenuity Pathway Analysis of transcripts differentially expressed in drug treated livers relative to control infections", "type": "in vivo, mouse"}, "[11]": {"test_system": "S. mansoni (mature infection in Swiss Webster mice)", "assay": "hepatic shift assay in infected mice", "details": "intraperitoneal, sacrificed three hours later; dose not given"}, "[12]": {"test_system": "liver of S. mansoni infected mice", "assay": "liver histology and immunohistochemistry of infected drug treated mice", "details": "ergotamine 60 mg/kg"}, "[13]": {"test_system": "immature S. mansoni (infection in mice)", "assay": "curative efficacy against immature infection in mice (dosing weeks 3-4 post infection)", "details": "dosing 3–4 weeks post infection, worm burden at 7 weeks; ERG 60 mg/kg, PZQ 50 mg/kg"}, "[14]": {"test_system": "S. mansoni (mature infection in Swiss Webster mice)", "assay": "curative efficacy against mature infection in mice (survival, worm burden, egg counts, organ weights)", "details": "for reduction in intestinal egg burden: ergotamine 60 mg/kg twice daily or PZQ 50 mg/kg, 42–49 days p.i.; for effect on hepatosplenomegaly: one week treatment starting at 42 days p.i."}}, "data": [{"compound": "C[C@@H]1CC[C@@]2(OC1)O[C@H]1[C@@H](O)[C@H]3[C@@H]4CC[C@H]5C[C@@H](O[C@@H]6O[C@H](CO)[C@H](O[C@@H]7O[C@H](CO)C(O)[C@H](O[C@@H]8OC[C@@H](O)[C@H](O)[C@H]8O)[C@H]7O[C@@H]7O[C@H](CO)[C@H](O)[C@H](O[C@@H]8O[C@H](CO)[C@@H](O)[C@H](O)[C@H]8O)[C@H]7O)[C@H](O)[C@H]6O)[C@H](O)C[C@]5(C)[C@H]4CC[C@]3(C)[C@H]1[C@@H]2C", "note": "(stereo partly drawn) [ST069321]", "values": [{"measurement": "(-) Sm.5HTR Forskolin response (% of DMSO)", "setting": "[1]", "result": "0.15 % of DMSO"}, {"measurement": "(+) Sm.5HTR 5-HT response (% of DMSO)", "setting": "[2]", "result": "0.1068 % of DMSO"}]}, {"compound": "NCCc1c[nH]c2ccc(O)cc12", "note": "[5-HT, serotonin]", "values": [{"measurement": "EC50", "setting": "[3]; receptor transiently transfected into stable HEK293 cAMP reporter line, read-out: EC50 of cAMP luminescence response", "result": "3.6 ± 0.3", "unit": "nM"}, {"measurement": "EC50", "setting": "[4]", "result": "3 ± 0.3", "unit": "nM"}, {"measurement": "EC50", "setting": "[5]", "result": "51600 ± 3000", "unit": "nM"}, {"measurement": "effect on adult worm movement", "setting": "[5]; 5-HT at 200 µM", "result": "increased worm movement"}, {"measurement": "effect on movement of juvenile worms", "setting": "[6]", "result": "stimulated movement of juvenile worms"}, {"measurement": "EC50", "setting": "[7]", "result": "76 ± 1", "unit": "nM"}, {"measurement": "fold induction at 1 µM", "setting": "[7]; HEK293, read-out: elevation in luminescence values (fold increase)", "result": "70 to 110"}, {"measurement": "reduction of egg laying ex vivo", "setting": "[8]; 100 µM, five days", "result": "82.4 ± 2.2", "unit": "% reduction"}]}, {"compound": "O=C(C1CCCCC1)N1CC(=O)N2CCc3ccccc3[C@@H]2C1", "note": "[R-PZQ]", "values": [{"measurement": "type of activity at human 5-HT2B receptor", "setting": "[9]", "result": "partial agonist"}]}, {"compound": "CN1C[C@H](C(=O)N[C@]2(C)O[C@@]3(O)[C@@H]4CCCN4C(=O)[C@H](Cc4ccccc4)N3C2=O)C=C2c3cccc4[nH]cc(c34)C[C@H]21", "note": "[ergotamine, Ergotamine]", "values": [{"measurement": "Emax", "setting": "[3]; HEK293, maximal cAMP response relative to 5-HT", "result": "96 ± 5", "unit": "%"}, {"measurement": "Emax", "setting": "[4]; HEK293", "result": "114 ± 3", "unit": "%"}, {"measurement": "EC50", "setting": "[5]", "result": "97.8 ± 31.6", "unit": "nM"}, {"measurement": "effect on movement of juvenile worms", "setting": "[6]", "result": "stimulated movement of juvenile worms"}, {"measurement": "effect on gene products associated with HSC activation", "setting": "[10]", "result": "down-regulated gene products associated with HSC activation"}, {"measurement": "type of activity at schistosome 5-HTRs", "setting": "[2]", "result": "full agonists"}, {"measurement": "Emax", "setting": "[7]; HEK293", "result": "95 ± 4", "unit": "%"}, {"measurement": "percentage of worms in the liver", "setting": "[11]", "result": "75.1 ± 16.9", "unit": "%"}, {"measurement": "morphology of eggs laid by treated worms", "setting": "[8]; 1 µM", "result": "often small and deformed"}, {"measurement": "granuloma formation and fibrosis in liver sections", "setting": "[12]", "result": "decreased granuloma formation and fibrosis"}, {"measurement": "hepatic microvesicular steatosis / microvascular damage", "setting": "[12]; H and E staining", "result": "not observed"}, {"measurement": "effect on immature infection", "setting": "[13]", "result": "did not resolve infections"}, {"measurement": "worm burden", "setting": "[14]; 60 mg/kg twice daily 42–49 days p.i., control 28 ± 8", "result": "9 ± 6", "unit": "worm pairs per mouse"}, {"measurement": "reduction of worm burden", "setting": "[14]; 60 mg/kg twice daily 42–49 days p.i., p<0.002", "result": "~ 65%"}, {"measurement": "reduction of infection-promoted increase in spleen mass", "setting": "[14]; 60 mg/kg twice daily 42–49 days p.i., relative to vehicle treated controls", "result": "55.8 ± 14.0", "unit": "%"}, {"measurement": "reduction in intestinal egg burden", "setting": "[14]", "result": "96.3 ± 1.2", "unit": "%"}, {"measurement": "effect on hepatosplenomegaly", "setting": "[14]", "result": "prevented hepatosplenomegaly"}]}, {"compound": "O=C(C1CCCCC1)N1CC(=O)N2CCc3ccccc3C2C1", "note": "(stereo not drawn) [PZQ, praziquantel]", "values": [{"measurement": "effect on gene products associated with HSC activation", "setting": "[10]", "result": "little to no effect"}, {"measurement": "effect on immature infection", "setting": "[13]", "result": "lack of effect"}, {"measurement": "lethality through 15 weeks", "setting": "[14]; PZQ 50 mg/kg for one week from 42 days p.i.", "result": "no observed lethality"}, {"measurement": "reduction in intestinal egg burden", "setting": "[14]", "result": "99.9 ± 0.1", "unit": "%"}, {"measurement": "effect on hepatosplenomegaly", "setting": "[14]", "result": "did not prevent spleen and liver enlargement"}]}]}
